Results on three compounds are retold here after patent EP4652992A1, “OPHTHALMIC COMPOSITION FOR PREVENTING AND TREATING CONJUNCTIVA EPITHELIUM DAMAGE AND ASSOCIATED DISCOMFORT CAUSED BY HYPOTONIZING FORMULATIONS” (FB Vision S.p.A., priority 2024, dated 2025).

For series [1], the system named is human conjunctival epithelial cells (HCE). As to the kind of experiment: Cell growth and vitality of HCE cells (trypan blue exclusion test and MTT assay). Type of series: cell-based. The text has this:
In vitro tests on human conjunctival epithelial cells (HCE) for the experimental verification of the cytoprotective and antioxidant activity of beta caryophyllene (BCP) on the oxidative damage induced by anti-glaucoma medicines (AD). Characterization of the cytoprotective effects of beta-caryophyllene (BCP) on the human conjunctival epithelial cells exposed to oxidative and mitochondrial stress. This stress mimics the irritant and inflammatory action of hypotonizing ophthalmic medicines on the external structures of the human eye.
The HCE cells were exposed for 24 and 48 hours with increasing concentrations of BRIM (from 0.25 up to 4 mg/mL), DZL (from 0.086 up to 0.43%) and TFP (from 0.9 up to 30 µg/mL), alone and in combination with various concentrations of BCP (from 1.25 up to 40 µM), and the cell growth and vitality were evaluated respectively using the trypan blue exclusion test and the MTT assay. […] The IC50 ([…]) values for BRIM and DZL on their own are given respectively in the accompanying Figures 1 and 2. The in vitro interactions between BCP and BRIM or DZL, as illustrated in Figures 3A and B, were determined by the ÿE model of non-parametric response surface analysis. […] In particular, the most advantageous combinations were 10 µM BCP with 2 mg/ml BRIM and 2.5 µM BCP with 0.25% DZL. Of the combinations selected, only the combination 10 µM BCP and 2 mg/mL BRIM, which reflects the commercial formulation of the eye drops for treatment, was studied further. All the statistical comparisons were performed with respect to vCTR (vehicle control).
On the technique in general: Tetrazolium assays rely on reduction of a dye to a coloured formazan, in cell work by metabolically active cells.

For series [2], the system named is HCE cells. The following applies: 48 hours of incubation. The procedure: The distribution of cell cycle phases is shown using PI dyeing and analyzed using flow cytometry. The bar charts show the percentage of cells in each phase and represent the average ± SE of the results of three independent experiments; one-way ANOVA followed by Bonferroni's t-test; *p<0.05 with respect to vCTR.
The cells were treated for 24 hours and 48 hours, and cytofluorimetric analyses of the cell cycle phase were performed for the distribution (Figure 4) and the apoptosis (Figure 5).

In series [3] the test system is HCE cells. The following applies: 24 hours, vs. vCTR.
Procedure: After 24 hours of treatment, intracellular production of ROS was analyzed using DCHF-DA with respect to vCTR. The values shown represent the average ± SE of the results of three independent experiments; one-way ANOVA followed by the Holm-Šidák method; *p<0.05 with respect to vCTR; p<0.05 BRIM/BCP with respect to BRIM dyeing with fluorescent dye. The values express the intensity of the fluorescence (Arbitrary Units, AU) and represent the average ± SE of the results of three independent experiments; one-way ANOVA in the rows; *p<0.05 with respect to vCTR.
Series [4] relates to HCE cells. The following applies: 3 - 24 hours, any analyzed moment, JC-1 dye.
Procedure: After the treatments, the ÿÿm was analyzed using JC-1 dye.
Measurements of mitochondrial activity, performed by means of experiments over time (3 - 24 hours), were evaluated by means of coloring with JC-1 dye.
Series [5] has as its system HCE cells. Nature of the series: Apoptosis, cytofluorimetric analysis. Type of series: cell-based, human. The following applies: BRIM/BCP with respect to BRIM. As for the experimental part: Figure 5 is a bar graph showing the percentage values of apoptotic cells (early and late) and necrotic cells in experimental groups exposed for 48 hours to BRIM and BCP.

Where a name gives a salt, the structure may show the parent alone.

As for `CC(C)OC(=O)CCC/C=C\C[C@@H]1[C@@H](/C=C/C(F)(F)COc2ccccc2)[C@H](O)C[C@@H]1O` [TFP, tafluprost], the cytotoxic effects result in series [1] (HCE cells, 24 and 48 hours, up to concentrations of 30 µg/mL) is “no cytotoxic effects”.
On to `Brc1c(NC2=NCCN2)ccc2nccnc12` [BRIM, Brimonidine tartrate], for which the S phase result in series [2] is reported as “significant decreases”. Moreover, in series [2] (vehicle control 12%, 2 mg/mL BRIM, 10 µM BCP), the “percentage of cells in the G2/M phase” value amounted to 33.73%. Further, the “increase in ROS production” value in series [3] was “approximately 30%”. The “mitochondrial membrane potential (ÿÿm)” value in series [4] is listed as “marked mitochondrial depolarization”.
For the compound `C=C1CC/C=C(\C)CC[C@@H]2[C@@H]1CC2(C)C` [BCP, (1R,4E,9S)-4,11,11-Trimethyl-8-methylidenebicyclo[7.2.0]undec-4-ene], the “protective effects of BCP in the cells treated with BRIM and DZL” value in series [1] (HCE cells, 48 hours of incubation, BCP from 1.25 up to 40 µM) was “Significant protective effects”. The “most advantageous combination, BCP concentration with BRIM” value in series [1] (with 2 mg/ml BRIM, non-parametric response surface analysis) amounted to 10 µM. Also, the “most advantageous combination, BCP concentration with DZL” value in series [1] (with 0.25% DZL, non-parametric response surface analysis) amounted to 2.5 µM. Moreover, the “early apoptosis reduced (apoptosis induced by BRIM)” value in series [5] (24 and 48 hours) is “approximately 35%”. Besides, the “late apoptosis decrease (apoptosis induced by BRIM)” value in series [5] (48 hours) is “approximately 15%”.
